pI data for one substance are collected here from US6844321B2, “Crystallization of a GLP-1 analogue” (Novo Nordisk A/S, priority 2000, dated 2005).

This series can be described thus: isoelectric point (pI) of the GLP-1 analogue. The format is physicochemical. Conditions: isoelectric point of the peptide, stated in the description.

Regarding Arg^34GLP-1(7-37), the pI entry was “about 5.4”.
